Literature values, collected in patent US7402581B2, “Azetidine compounds” (Albireo AB, priority 2003, dated 2008).

Target: T1, Human Neurokinin-2 (NK2) Receptor (Homo sapiens, UniProt P21452)
T1 sequence (P21452 1-398): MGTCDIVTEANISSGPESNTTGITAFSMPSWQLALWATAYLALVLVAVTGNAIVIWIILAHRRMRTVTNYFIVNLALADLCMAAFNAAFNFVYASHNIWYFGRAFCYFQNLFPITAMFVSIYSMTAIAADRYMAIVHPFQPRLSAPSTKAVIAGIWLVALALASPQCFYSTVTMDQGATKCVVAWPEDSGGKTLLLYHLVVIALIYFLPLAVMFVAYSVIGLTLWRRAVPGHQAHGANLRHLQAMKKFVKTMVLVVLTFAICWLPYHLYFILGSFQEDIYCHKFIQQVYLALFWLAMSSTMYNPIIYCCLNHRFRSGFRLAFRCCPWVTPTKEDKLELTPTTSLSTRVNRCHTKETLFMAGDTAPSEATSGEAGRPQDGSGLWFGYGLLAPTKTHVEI
Settings: reported in Bioorganic & Medicinal Chemistry Letters 2003

For `CN(CC(CCN1CC(N2CCOCC2)C1)c1ccc(Cl)c(Cl)c1)C(=O)c1ccccc1` (stereo not shown) [N-[2-(3,4-dichlorophenyl)-4-(3-morpholin-4-ylazetidin-1-yl)butyl]-N-methylbenzamide], the “functional NK2 receptor antagonistic properties” value is listed as “functional NK2 receptor antagonistic properties”.
